The text below walks through data of ChEMBL document CHEMBL1134002, “N-Aminoindoline derivatives as inhibitors of 5-lipoxygenase” (Bioorg Med Chem Lett, 2001).

pIC50: −log10 of the molar value.

As a reminder, the inhibition is the share of the control response that was lost under treatment. By pIC50 is commonly meant the IC50 on a negative log10 scale, so that one unit is a factor of ten. High values mean a low IC50, low ones a high IC50.

In assay [1] the target is T1, Polyunsaturated fatty acid 5-lipoxygenase (Rattus norvegicus) (UniProt P12527).
T1 sequence (whole entry): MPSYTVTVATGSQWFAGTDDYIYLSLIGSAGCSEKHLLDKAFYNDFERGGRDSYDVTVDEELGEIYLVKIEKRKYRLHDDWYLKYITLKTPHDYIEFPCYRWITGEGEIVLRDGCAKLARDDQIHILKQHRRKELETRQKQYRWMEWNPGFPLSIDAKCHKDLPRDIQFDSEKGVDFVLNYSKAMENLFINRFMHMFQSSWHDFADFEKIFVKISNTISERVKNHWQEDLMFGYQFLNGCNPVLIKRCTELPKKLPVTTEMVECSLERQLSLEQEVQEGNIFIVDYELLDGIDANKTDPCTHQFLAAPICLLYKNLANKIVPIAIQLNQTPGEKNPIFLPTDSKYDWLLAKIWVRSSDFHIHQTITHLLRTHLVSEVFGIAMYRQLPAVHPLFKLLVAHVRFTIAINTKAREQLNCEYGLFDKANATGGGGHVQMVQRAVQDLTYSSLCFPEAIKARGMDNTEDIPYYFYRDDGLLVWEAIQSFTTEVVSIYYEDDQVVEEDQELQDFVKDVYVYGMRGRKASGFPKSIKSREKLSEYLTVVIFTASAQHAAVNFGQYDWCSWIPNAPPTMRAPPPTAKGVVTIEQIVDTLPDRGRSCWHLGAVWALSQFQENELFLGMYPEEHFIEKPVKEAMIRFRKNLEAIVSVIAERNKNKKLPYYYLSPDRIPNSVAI
The experiment in a line: In vitro percent inhibition against 5-lipoxygenase in RBL-1 cells at 1 uM concentration. It is filed as cell-based.

Assay [2] concerns the target T1, Polyunsaturated fatty acid 5-lipoxygenase (Rattus norvegicus). The experiment in a line: In vitro percent inhibition against 5-lipoxygenase in RBL-1 cells at 10 uM concentration. It is filed as cell-based.
The target in assay [3] is T2, Polyunsaturated fatty acid 5-lipoxygenase (Rattus norvegicus, UniProt P12527).
T2 sequence (P12527 whole entry): T1 sequence (whole entry)
The experiment in a line: In vitro inhibitory concentration against 5-lipoxygenase in RBL-1 cells. It is filed as cell-based.

Assay [4] deals with T1, Polyunsaturated fatty acid 5-lipoxygenase (Rattus norvegicus). To be noted: RBL-1; 10 uM.

In assay [1], `CCCCCCCCCCNC(=O)CCC/C=C/c1ccc(C(=O)NN2CCc3ccccc32)cc1` returned an inhibition of 57%. Turning to `COc1ccc2c(c1)CCN2NC(=O)c1ccccc1`, the inhibition in assay [2] is 20%. The molecule `O=C(O)CCC/C=C/c1ccc(C(=O)NN2CCc3ccccc32)cc1` returned an inhibition in assay [2] of 18%. `O=C(NN1CCc2cc(O)ccc21)c1ccccc1` showed a pIC50 in assay [3] of 5.46. In assay [2], this molecule gave an inhibition of 80%. `O=C(NN1CCc2ccccc21)c1ccccc1` came in with an inhibition in assay [2] of 15%. On the same count and under the same terms, in the case of `CN(NC(=O)c1ccccc1)c1ccccc1` it was 28%.

In the case of `CC(Cc1ccc(O)c(O)c1)C(C)Cc1ccc(O)c(O)c1` (centres undefined), in assay [4], the inhibition amounted to 73%. With `CN(NS(=O)(=O)c1ccccc1)c1ccccc1`, the inhibition in assay [2] stood at 53%.
